Results taken from patent US9155790B2, “Methods and compositions for modulating ocular damage” (University of Lousiville Research Foundation, Inc., priority 2010, dated 2015).
Entries after “also recorded” stand apart in the source; their conditions may differ.

Legend:
C57BL/6 mice [1] = assay: Proliferative vitreoretinopathy (PVR) model, surgically induced retinal detachment in mice; type: in vivo; details: 500 μg in 5 μl subtenon on days 0 and 5; light microscopy day 10
Protocol: The effect of MIF inhibition on EMT was further tested in vivo using an animal model of PVR. Six (6) adult C57BL/6 mice were anesthetized with pentobarbital sodium (70 mg/kg i.p.) and a linear incision was made in the cornea. The lens was removed and a tear was created in the peripheral retina using a 32G needle. The corneal incision was then sutured with 10-0 nylon.
The experimental group received 500 μg/in 5 μl of a MIF inhibitor (4-iodo-6-(2-fluorophenyl)pyrimidine; Compound 1) in the posterior subtenon space on Days 0 and 5, whereas control animals received the solvent. Animals were sacrificed on Day 10 and light microscopy was used to assess the presence and extent of PVR. MIF^−/− animals (n=3) were also used as control.
In order to test the safety and efficacy of MIF neutralization in vivo, the model disclosed in Saika et al., 2004 was employed.
Briefly, retinal detachment was created in three C57BL6 mice. Animals underwent a lensectomy/vitrectomy procedure under ketamine/xylazine anesthesia. These procedures were done through a central slit corneal incision. After the completion of the procedure, a tear was created in the peripheral retina under the microscope and the sensory retina was detached. Next, the cornea was closed with a 10-0 nylon suture and each animal was returned to its cage. […]

C57BL/6 mice [2] = assay: Laser-induced subretinal choroidal neovascularization (CNV) in mice; type: in vivo; details: for CNV yield (percent of the spots with CNV): read 10 days after laser
Source text: In order to test the efficacy of MIF inhibitors to prevent subretinal or intraretinal neovascularization, subretinal choroidal neovascularization (CNV) was induced in C57BL/6 mice (n=3; 6 eyes/per experimental group) using a double-frequency YAG laser (532 nm). Laser parameters were 600 mW of power, 0.1 sec duration, and a spot size of 50 micrometers. Approximately 8-12 spots per eye were placed. One group of animals received 500 micrograms of 4-(2-fluorophenyl)-6-iodopyrimidine (Compound 1) into the posterior subtenon space through a 32-G needle 24 hours before laser application. Compound 1 was dissolved in 1:1 mixture of DMSO and corn oil solvent. The injection volume was 5 microliters.
Another group of animals received the drug six days after the laser photocoagulation when subretinal neovascularization is at its maximum growth. This scenario exemplified the use of MIF inhibitors (including, but not limited to Compound 1) in the treatment of active wet age-related macular degeneration (AMD). The two […] controls received either PBS or DMSO:corn oil mixture into the subTenon space. MIF^−/− animals (i.e., mice with a homozygous knock out of the MIF gene) were also taken as the negative control.
Ten days after the laser photocoagulation animals were perfused with high molecular weight dextran (2 megadalton)-conjugated fluorescein under deep anesthesia and then sacrificed. Choroidal neovascularization (CNV) yield (=percent of the spots with CNV) was determined under a fluorescent microscope.
The effect of MIF neutralization on retinal pigment epithelial (RPE) differentiation and wound healing properties in animal models of chemical RPE debridement and laser-induced choroidal neovascularization (CNV) was tested. CNV was induced in C57BL/6 mice (n=18) using a double-frequency YAG laser (532 nm; 600 mW; 0.1 sec; 50 μm; 8-12 spots/eye). The experimental group (n=6) received 500 μg/in 5 μl of a MIF inhibitor (4-iodo-6-(2-fluorophenyl)pyrimidine; Compound 1) in the posterior subtenon space 24 hours before laser application. Ten (10) days later, animals were sacrificed and induced CNV (i.e., yield) was determined.
(§1) Another group of animals received MIF-inhibitor 6 days after laser treatment to determine the effect of MIF-neutralization on established CNV. RPE loss was also mimicked in twelve C57BL/6 mice by patchy debridement of RPE using intraperitoneal sodium iodate injection (25 mg/kg). Seven days later, animals received the subtenon MIF inhibitor and RPE resurfacing was determined on day 21 by morphometric image analysis. In all experiments, MIF^−/− animals and wild type animals that received the solvent (DMSO/Corn oil) and/or PBS were used as controls.

C57BL/6 mice [3] = assay: Sodium iodate chemical RPE debridement model of geographic atrophy; type: in vivo
Protocol: as §1
Immunostaining for RPE65, vimentin, E-cadherin, and N-cadherin was used to identify and characterize RPE differentiation.
Sodium iodate was employed for chemical debridement of RPE to mimic geographic atrophy. Mice received NalO3 (25 mg/kg) intraperitoneally followed by subtenon injection of Compound 1 (500 μg in 5 μL) on day 7. Mice were sacrificed on Day 21 and the surface coverage by RPE cells was determined.

Brown Norway rats = assay: PVR / retinal detachment model in Brown Norway rats; type: in vivo
Protocol: Briefly, retinal detachment was created in three C57BL6 mice. Animals underwent a lensectomy/vitrectomy procedure under ketamine/xylazine anesthesia. These procedures were done through a central slit corneal incision. After the completion of the procedure, a tear was created in the peripheral retina under the microscope and the sensory retina was detached. Next, the cornea was closed with a 10-0 nylon suture and each animal was returned to its cage. The experimental group received 500 μg/in 5 μl of the MIF inhibitor 4-(2-fluorophenyl)-6-iodopyrimidine (Compound 1) in the posterior subtenon space on days 0 and 5, whereas control animals received the solvent (i.e., a 1:1 mixture of DMSO and corn oil). Animals were sacrificed on day 10 and light microscopy was used to assess the presence and extent of PVR. MIF^−/− knockout animals (n=3) were also used as a control.
Similar experiments were also repeated using Brown Norway rats. […] However, in control animals (FIG. 5 I) numerous RPE cells became migratory in the vitreous and started to form epiretinal membranes

primary human RPE cells = assay: EMT of cultured primary human RPE cells (morphology and qPCR); type: cell-based
Protocol: To determine whether MIF inhibition can prevent the formation proliferative vitreoretinopathy (PVR) by inhibiting epithelio-mesenchymal transformation (EMT) of RPE, primary human RPE cells from two young donors were plated on tissue-culture plastic and maintained in DMEM H16 supplemented with 10% FBS and a MIF inhibitor (4-IPP; 25-50 μM) for 3 weeks. Control cells were exposed only to the solvent (DMSO/Corn oil).
Morphology and qPCR for microphthalmia transcription factor (MITF), plasminogen activator inhibitor type-1 (PAI-1), vimentin, and N-cadherin were used to assay for the presence of EMT.
Human RPE cells were isolated freshly (<24 hours) from human donor eyes. Harvested RPE cells were cultured on tissue-culture plates. 25 μM of 4-IPP, a small molecule antagonist of MIF, was added to the culture medium every other day. Untreated wells were taken as control. 21 days later, cells were photographed and RNA was isolated for qPCR analyses.

[4] = 25 μM every other day, 21 days, qPCR
[5] = 25-50 μM for 3 weeks, qPCR vs control

With `Fc1ccccc1-c1cc(I)ncn1` [Compound 1, 4-(2-fluorophenyl)-6-iodopyrimidine] the “RPE cell layering / morphology in the subretinal space” value (C57BL/6 mice [1]) was “remained as a monolayer; also recorded: maintained an epitheloid monolayer in the subretinal space”, the “formation / contraction of peri-retinal membranes (PVR)” value (C57BL/6 mice [1]) was “significantly inhibited the formation of peri-retinal membranes; also recorded: No physical distortion related with the contraction of periretinal membranes was noted” and the “CNV yield (percent of the spots with CNV)” value (C57BL/6 mice [2]; 500 μg in 5 μl posterior subtenon, 24 hours before laser (pre-laser)) was 10.7%. For the same molecule, the “CNV yield (percent of the spots with CNV)” value (C57BL/6 mice [2]; 500 μg subtenon 6 days after laser (post-laser, established CNV)) was 12.9%, the “RPE growth over the laser spot” value (C57BL/6 mice [2]; histology / fluorescence microscopy of laser spots) was “RPE cells proliferated to cover the spot; also recorded: RPE proliferated over the laser spot and sealed it off from neovascularization; also recorded: proliferate over the laser spot and seal it off from neovascularization” and the “occurrence of CNV (FIG. 1)” value (C57BL/6 mice [2]; post-laser application (5th bar)) was “significantly suppressed the occurrence of CNV”. For the same molecule, the “occurrence of CNV (FIG. 1)” value (C57BL/6 mice [2]; pre-laser application (4th bar)) was “significantly suppressed the occurrence of CNV”, the “differentiation of proliferating RPE cells (immunostaining)” value (C57BL/6 mice [3]; MIF-neutralized animals, RPE65, vimentin, E-cadherin, N-cadherin staining) was “maintained differentiated cuboidal morphology and expressed E-cadherin and RPE-65” and the “surface coverage by RPE cells vs vehicle (FIG. 7)” value (C57BL/6 mice [3]; NaIO3 25 mg/kg i.p., 500 μg in 5 μL subtenon on day 7, day 21) was “statistically significant greater surface coverage”. The “surface coverage by RPE cells” value (C57BL/6 mice [3]; sodium iodate 25 mg/kg i.p., subtenon MIF inhibitor on day 7, morphometric image analysis on day 21) was 93.8±6.3%, the “RPE resurfacing of the denuded Bruch's membrane (FIGS. 8, 9)” value (C57BL/6 mice [3]; three weeks after partial destruction of RPE cells, vs vehicle) was “proliferated at a higher rate, resurfaced the Bruch's membrane, and formed an epithelial monolayer; also recorded: better resurfacing of the denuded Bruch's membrane with RPE cells; also recorded: RPE cells established a monolayer in many places; also recorded: proliferated at a higher rate; resurfaced the Bruch's membrane and formed an epithelial monolayer” and the “RPE cell proliferation (PCNA staining)” value (C57BL/6 mice [3]; vs vehicle control mice, FIG. 10A) was “increased cell proliferation; also recorded: higher proliferation of the RPE cells”. The “apoptotic cell death (TUNEL staining)” value (C57BL/6 mice [3]; vs vehicle control mice, FIG. 10B) was “decreased apoptotic cell death”, the “RPE morphology and invasion of subretinal / intravitreal space” value (Brown Norway rats; Brown Norway rats, FIG. 5H, vs control) was “maintained their epitheloid morphology and did not invade the subretinal and/or intravitreal space” and the “preservation of photoreceptor cells in the detached retina” value (Brown Norway rats; FIG. 6A vs vehicle control FIG. 6B) was “better preservation of the photoreceptor cells in the detached retina; also recorded: better preserved”. The “outer nuclear layer thickness” value (Brown Norway rats; detached retina, FIG. 6A vs controls) was “thicker outer nuclear layer”.

In the case of `Ic1cc(-c2ccccc2)ncn1` [Compound 4-IPP, 4-iodo-6-phenylpyrimidine], the “MITF mRNA level, control lower than inhibitor-treated cells” value (primary human RPE cells; [4]) is reported as 1.6 fold, the “N-cadherin mRNA level, control higher than inhibitor-treated cells” value (primary human RPE cells; [4]) is reported as 43.2 fold and the “PAI-1 mRNA level, control higher than inhibitor-treated cells” value (primary human RPE cells; [4]) is reported as 19.7 fold. For the same molecule, the “vimentin mRNA level, control higher than inhibitor-treated cells” value (primary human RPE cells; [4]) was 8.5 fold, the “cell number and morphology of cultured human RPE cells (FIG. 4A)” value (primary human RPE cells; 25 μM every other day, 21 days, vs control wells) was “significantly fewer in number, were uniformly pigmented, retained a classical cuboidal epithelial morphology” and the “increase in MITF mRNA level” value (primary human RPE cells; [5]) was 1.6 ×. The “reduction of N-cadherin mRNA level” value (primary human RPE cells; [5]) was 43.2 ×, the “reduction of PAI-1 mRNA level” value (primary human RPE cells; [5]) was 19.7 × and the “reduction of vimentin mRNA level” value (primary human RPE cells; [5]) was 8.5 ×. The “cell number and morphology of cultured human RPE cells” value (primary human RPE cells; 25-50 μM for 3 weeks, vs solvent control) was “significantly fewer in number but maintained their typical cuboidal epithelial morphology”.
